According to patent US20080213172A1, “RADIOIMAGING MOIETIES COUPLED TO PEPTIDEASE-BINDING MOIETIES FOR IMAGING TISSUES AND ORGANS THAT EXPRESS PEPTIDASES” (Molecular Insight Pharmaceuticals, Inc., priority 2006, published 2008):

molecular target: T1, purified rabbit lung ACE (Oryctolagus cuniculus, UniProt P12822); experiment: In vitro ACE activity colorimetric assay (Fujirebio ACE color kit); type: biochemical; settings: Re-complexes; purified rabbit lung ACE
T1 construct: The rabbit lung ACE (Sigma A6778) was reconstituted to a concentration of 1 unit/3 ml water; purchased Sigma A6778; host or cells: rabbit lung tissue
T1 sequence (P12822 34-1310): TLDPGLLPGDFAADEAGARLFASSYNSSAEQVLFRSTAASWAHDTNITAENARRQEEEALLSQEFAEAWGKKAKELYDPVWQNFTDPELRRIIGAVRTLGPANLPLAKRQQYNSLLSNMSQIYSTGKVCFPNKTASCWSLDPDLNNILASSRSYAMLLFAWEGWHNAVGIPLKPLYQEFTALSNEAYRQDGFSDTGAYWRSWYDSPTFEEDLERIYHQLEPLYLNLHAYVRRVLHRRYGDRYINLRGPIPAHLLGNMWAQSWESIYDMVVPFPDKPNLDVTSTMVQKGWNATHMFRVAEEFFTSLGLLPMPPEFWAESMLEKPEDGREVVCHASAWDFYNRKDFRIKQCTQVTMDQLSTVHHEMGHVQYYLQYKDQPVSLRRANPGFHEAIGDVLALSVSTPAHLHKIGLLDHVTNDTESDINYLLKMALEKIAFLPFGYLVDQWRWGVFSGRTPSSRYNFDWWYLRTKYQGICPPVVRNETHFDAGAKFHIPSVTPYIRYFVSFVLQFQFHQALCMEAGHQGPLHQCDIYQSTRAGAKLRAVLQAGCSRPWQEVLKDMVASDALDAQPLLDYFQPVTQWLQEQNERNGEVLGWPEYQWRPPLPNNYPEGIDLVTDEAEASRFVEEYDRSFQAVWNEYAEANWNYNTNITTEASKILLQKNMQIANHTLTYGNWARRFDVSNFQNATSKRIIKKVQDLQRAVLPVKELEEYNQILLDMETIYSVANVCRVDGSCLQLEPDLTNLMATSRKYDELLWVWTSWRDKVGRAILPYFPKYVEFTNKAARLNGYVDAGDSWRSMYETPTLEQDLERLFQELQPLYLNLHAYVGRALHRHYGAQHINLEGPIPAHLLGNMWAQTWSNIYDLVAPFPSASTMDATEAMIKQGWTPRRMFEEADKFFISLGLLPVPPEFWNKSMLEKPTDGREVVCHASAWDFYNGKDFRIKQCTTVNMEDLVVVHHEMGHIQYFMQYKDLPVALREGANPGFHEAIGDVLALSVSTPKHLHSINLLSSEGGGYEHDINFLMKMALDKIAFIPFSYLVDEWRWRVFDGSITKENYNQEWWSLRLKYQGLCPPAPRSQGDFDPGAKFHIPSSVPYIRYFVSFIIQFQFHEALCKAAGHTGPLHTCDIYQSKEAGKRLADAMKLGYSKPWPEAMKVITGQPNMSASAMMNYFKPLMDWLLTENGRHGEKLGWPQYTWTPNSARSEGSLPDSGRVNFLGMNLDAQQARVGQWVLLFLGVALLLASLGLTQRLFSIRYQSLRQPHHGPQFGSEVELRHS
Method: ACE inhibition was evaluated in vitro against rabbit lung ACE using a colorimetric assay.
A range of concentrations of each compound was examined for the ability to inhibit ACE cleavage of p-hydroxybenzoyl-glycine L-histidyl-L-leucine using a commercially available in vitro biochemical assay according to manufacturer's specifications (Fujirebio). The source of ACE enzyme chosen for the analysis was purified rabbit lung ACE (Sigrna) at 3.3 mU/sample. Lisinopril was included in each experiment as a positive control.
Angiotensin converting enzyme (ACE) activity was determined using the ACE color kit (Fujirebio) according to the manufacturers instructions. ACE acts upon p-hydroxybenzoyl-glycyl-L-histidyl-L-leucine to produce p-hydroxybenzoyl-glycine, which is converted to p-hydroxybenzoic acid by hippuricase. Quinoneimine dye is produced by oxidation and condensation of the p-hydroxybenzoic acid and 4-aminoantipyrine using sodium metaperiodate. The concentration of quinoneimine dye is quantitatively measured at its absorbance maximum of 505 nm. This assay was designed to compare the tissue and plasma specificity of rhenium-labeled ACE inhibitors in an ACE colorimetric assay.
Preparation of reagents: The ACE color kit was purchased from Fujirebio and the assay was conducted according to the manufacturer's instructions: reconstitute substrate with 5.6 ml of buffer solution, reconstitute blank with 5.6 ml of buffer solution for blank, reconstitute developer with 15.5 ml of stopper solution. The rabbit lung ACE (Sigma A6778) was reconstituted to a concentration of 1 unit/3 ml water.
Substrate or blank solution (125 μL) was then added and incubated at 37° C. for 20 min. The developer solution was added and incubated 37° C. for 3 min. The activity of the test compounds was determined by measuring the absorbance at 505 nm on a spectrophotometer. The optimal amount of serum ACE (25 μL) and tissue ACE (3.3 mUnits) was used to determine the specificity of the rhenium-labled ACE inhibitors. Test compounds, including lisinopril and captopril, were prepared (50 μM stock) and serially diluted 10-fold for final concentrations ranging from 1 μM to 0.1 nM (10 μL/assay tube). The assay was conducted as described above.
In vitro ACE activity assay. The ability of test compounds to inhibit ACE activity was determined using the ACEcolor kit from Fujirebio, Inc. according to the manufacturer's instructions. Purified rabbit lung ACE. (3.3 mUnits, Sigrna Chemicals) was incubated for 20 min with the test compound at concentrations of 1 μM to 0.1 nM in a solution of substrate at 37° C. Developer solution was added and the samples were incubated for an additional 5 minutes at 37° C. before reading at 505 nm in a spectrophotometer.

| Compound | IC50 [nM] |
| --- | --- |
| NCCCC[C@H](N[C@@H](CCc1ccccc1)C(=O)O)C(=O)N1CCC[C@H]1C(=O)O [Lisinopril, reference compound] | 4 |

same assay, conditions: free D(Cx)L ligands; rabbit lung ACE 3.3 mU/sample

| Compound | IC50 [nM] |
| --- | --- |
| O=C(CCCN(Cc1ccccn1)Cc1ccccn1)NCCCCC(NC(CCc1ccccc1)C(=O)O)C(=O)N1CCCC1C(=O)O (stereo not drawn) [D(C4)L] | 83.3 |
| NCCCC[C@H](N[C@@H](CCc1ccccc1)C(=O)O)C(=O)N1CCC[C@H]1C(=O)O [Lisinopril, reference compound] | 2.5 |

Results, then the molecule that gave them:

| IC50 [nM] | Compound |
| --- | --- |
| 19.5 | O=C(CCCCCCCN(Cc1ccccn1)Cc1ccccn1)NCCCCC(NC(CCc1ccccc1)C(=O)O)C(=O)N1CCCC1C(=O)O (stereo not drawn) [D(C8)L] |
| 42.5 | O=C(CCCCCN(Cc1ccccn1)Cc1ccccn1)NCCCCC(NC(CCc1ccccc1)C(=O)O)C(=O)N1CCCC1C(=O)O (stereo not drawn) [D(C6)L] |
| 42.8 | O=C(CCCCN(Cc1ccccn1)Cc1ccccn1)NCCCCC(NC(CCc1ccccc1)C(=O)O)C(=O)N1CCCC1C(=O)O (stereo not drawn) [D(C5)L] |
